The source of these data is US10533018B2, “Antimicrobial prochelators to target drug-resistant bacteria and methods of making and using the same” (Duke University, priority 2015, dated 2020).

pIC50: −log10 of the molar value. Where two headings read alike, the source gives them in different places.

The test system of data set [1] is Type III β-lactamase from Enterobacter cloacae. The experiment in a line: LC-MS conversion of prochelator by β-lactamase. Format: biochemical. How it is done:
(§1) A commercially available β-lactamase (type III from Enterobacter cloacae, Sigma Aldrich) was used to verify the specificity of compound DB4-51 activation. Aqueous samples of the prochelator with and without β-lactamase were incubated at 25° C. and LC-MS was performed periodically to monitor the conversion. Percent conversion was calculated based upon the area under the LC-MS peak that corresponds to the mass of DB4-51.
LC-MS performed on samples containing 100 μM DB4-51, 10 μM Rofecoxib (as internal standard), and 0.5 units/mL β-lactamase in PBS. Samples were incubated at room temperature and analyzed via LC-MS at time 0. The mass spectrum corresponding to the chromatographic peak eluting at 14 min matches the expected m/z value for […]. After incubation, a new peak appears at 7 mins with corresponding m/z values consistent with expected masses of PT disulfide and the 2:1 PT complex with iron. The internal standard was Rofecoxib which elutes at 16 min. The concentrations of DB4-51, PT, and internal standard were calculated based on prepared calibration curves of the integrated area under the UV peak of each component.
(§2) The reaction products of the prochelator DB4-162 were analyzed by LC-MS. A sample of 100 μM DB4-162 and 10 μM Rofecoxib (internal standard) in PBS was divided into two LC-MS vials and to one was added 0.5 units/mL β-lactamase. After incubating at room temperature, the samples were run on the LC-MS. Integrating the area under the peak of the UV-trace gives a measure of the concentration of that species. By serial dilution, a calibration curve was constructed in order to quantify the concentration of DB4-162 present in solution. The mass spectrum confirms that the prochelator, with a molecular weight of 477.1 g/mol, elutes at 14.5 minutes (FIG. 10).

Data set [2] concerns 7 bacterial strains. The experiment in a line: Broth microdilution, summary across strains tested. Format: cell-based. How it is done: Cultures were incubated on LB (Lennox, Sigma) agar at 37° C. in ambient atmospheric composition. Before beginning an experiment, a single bacterial colony grown on LB agar was resuspended in 2 mL LB broth and incubated overnight to form a turbid cell suspension. The overnight culture was diluted 1:100 in LB and used immediately as the working culture. To assess the antibacterial activity of compounds, the working bacterial culture was aliquoted in a clear, flat-bottomed, 96-well polystyrene plate (Costar) and the compound of interest was added in 2-fold serial dilution from 500 to 1 μM. Plates were covered with a breathable sealing film (Aeroseal, Genesee Scientific) and incubated at 37° C. in ambient atmospheric composition with shaking at 200 rpm. Optical density at 600 nm was recorded after 4 h and 20 h for each well using a standard OD600 protocol with LB serving as the blank. The resulting dose-response curves were fit to a nonlinear regression in GraphPad Prism Version 6 to calculate the IC50 of DB4-51 in each strain.
For orientation: Dilution methods test growth across graded concentrations, often in twofold steps.

The nature of data set [3]: Stability in aqueous media / PBS (UV-Vis, LC-MS). In kind it is physicochemical. The procedure: as §1
The results from the growth inhibition assays support our hypothesis that β-lactamase-producing bacteria activate DB4-51 to release PT as the active agent. […] The UV-Vis absorbance spectra of DB4-51 and PT in PBS buffer are clearly distinct, with DB4-51 showing a shoulder at 264 nm and a broad absorption peak centered at 315 nm.
In order to monitor the stability of DB4-162, the absorbance spectrum was recorded in PBS. The sample was incubated at 37° C. and the absorbance spectrum was recorded periodically. […] Additionally, the concentration of the prochelator in solution was monitored by LC-MS. A calibration curve was prepared after a serial dilution of DB4-162 was analyzed on the instrument and the area under the broad absorbance band at 260-300 nm that correlates with the prochelator was integrated. This curve was then used to calculate the concentration of DB4-162 present in solution after incubating in PBS at 37° C. The sample was analyzed by LC-MS after 0, 24, and 72 hours. After incubating in PBS for 24 hours more than 85% of the original signal was still observed by LC-MS. However, after 72 hours, it was calculated that approximately 60% of DB4-162 was still present in solution. Given the lack of degradation products in the mass spectrum and the absence of any new absorbance peaks it is possible that aggregation of the prochelator over time is the cause of the observed loss of signal. Together, the UV-Vis and LC-MS data support the overall stability of DB4-162 in aqueous conditions. By comparison, the half-life of most β-lactam antibiotics in vivo is a few hours.[44, 45]
as §2

Data set [4] is described as follows: Zinpyr-1 fluorescence assay. In kind it is physicochemical. How it is done: Lanes three and four contain 100 μM DB4-51 and 0.5 units/ml β-lactamase respectively and confirm these molecules are innocent in the fluorescence of zinpyr-1. Lane five contains 100 μM DB4-51 and 0.5 units/ml β-lactamase.
The test system of data set [5] is mammalian cells. The experiment in a line: LC-MS of spent mammalian cell culture medium. The conditions noted are these: spent cell culture medium of cytotoxicity assay; after 4 hours. In kind it is in vitro ADME. How it is done: Suspecting that the cytotoxicity apparent at high concentrations of DB4-51 in the mammalian cells may be due to PT released by non-specific hydrolysis of DB4-51, we analyzed the spent cell culture medium used for the cytotoxicity assay by LC-MS and found 50-60% loss of detectable, intact prochelator compared to the non-incubated controls after 4 hours.

For data set [6], the system named is +Bla K-12 E. coli. Format: cell-based, Escherichia coli. The note with it: 1 h, ICP-MS; for increase in cell-associated copper over the CuCl2 control: 10 μM compound + 10 μM supplemental CuCl2; for changes in cell-associated copper, iron, or zinc vs untreated control: 2.5-10 μM compound alone. The procedure: PT is recognized as an ionophore that shuttles metals across cell membranes and thereby disrupts cellular metal homeostasis. […] To test this hypothesis, inductively-coupled plasma mass spectrometry (ICP-MS) was used to measure the concentration of cell-associated copper, iron, and zinc for +Bla K-12 E. coli grown under a variety of conditions. Untreated E. coli grown in LB media were compared to those incubated for one hour in LB containing 0, 2.5, 5, or 10 μM DB4-51 or PT with and without 10 μM supplemental CuCl2. The concentrations of cell-associated metals in +Bla E. coli grown in these conditions are reported as a ratio against bacterial growth as measured by the OD600 reading at the time of sampling.
FIG. 6: Cellular metal concentrations of +Bla K-12 E. coli. Cultures of +Bla K-12 E. coli were incubated for 1 h in LB media, LB containing no treatment, 10 μM added CuCl2, and DB4-51 (top) or PT (bottom) at indicated concentrations in the absence or presence of 10 μM CuCl2. Metal contents of cell pellets were analysed via ICP-MS and reported as a function of OD600.

In the case of `O=C(Cc1ccccc1)N[C@@H]1C(=O)N2C(C(=O)O)=C(CSc3cccc[n+]3[O-])CS[C@H]12` [DB4-51, 2-((((6R,7R)-2-carboxy-8-oxo-7-(2-phenylacetamido)-5-thia-1-azabicyclo[4.2.0]oct-2-en-3-yl)methyl)thio)pyridine 1-oxide], the “Percent conversion (LC-MS peak area)” value in data set [1] (100 μM, 0.5 units/ml β-lactamase, pH 7.4 PBS, after 4 hours) is recorded as roughly 80%. The “decrease of chromatographic peak area of prochelator” value in data set [1] (after 4 hours in the presence of β-lactamase) is “more than 80%”. In data set [1] (with β-lactamase, PT difficult to quantify), the “PT released from the prochelator (area under PT peak)” value turned out to be 50%. The “IC50 of DB4-51 relative to that of PT” value in data set [2] (most ampicillin-resistant strains tested) is 2-5 fold. Moreover, in data set [3] (PBS, 72 hours at 37° C.), the “stability by LC-MS” value is “no signs of degradation”. Also, the “absorbance spectrum in PBS” value in data set [3] (PBS, after 19 hours) was “remains unchanged”. Besides, the “Percent conversion in the absence of the enzyme” value in data set [3] (aqueous, 25° C., after 48 hours) is on record as no more than 5%. Besides, in data set [4] (100 μM + 0.5 units/ml β-lactamase), the “decrease of Zn-zinpyr-1 fluorescence” value is reported as “more than 50%”. In data set [4] (400 equivalents (100 μM), no β-lactamase), the “Zn-zinpyr-1 fluorescence on addition of compound” value is “unaffected”. Further, in data set [5], the “loss of detectable, intact prochelator vs non-incubated controls” value is listed as 50-60%. Besides, in data set [6], the “increase in cell-associated copper over the CuCl2 control” value was “slight but statistically insignificant increase” and the “changes in cell-associated copper, iron, or zinc vs untreated control” value is reported as “no significant changes”.
In the case of `Cc1csc(=S)n1OCC1=C(C(=O)O)N2C(=O)[C@@H](NC(=O)Cc3ccccc3)[C@H]2SC1` [DB4-162, (6R,7R)-3-(((4-methyl-2-thioxothiazol-3(2H)-yl)oxy)methyl)-8-oxo-7-(2-phenylacetamido)-5-thia-1-azabicyclo[4.2.0]oct-2-ene-2-carboxylic acid], in data set [1] (100 μM, 0.5 units/mL β-lactamase, PBS, 4 hours), the “reduction of prochelator peak” value is “more than 95%”. For the same compound, the “stability without the enzyme (LC-MS)” value in data set [3] is reported as “appears stable”. In addition, the “original signal still observed by LC-MS” value in data set [3] (PBS, 37° C., 24 hours) is reported as “more than 85%”. In addition, the “prochelator still present in solution (LC-MS)” value in data set [3] (PBS, 37° C., 72 hours) is listed as “approximately 60%”. Besides, the absorbance spectrum change entry in data set [3] (PBS, 37° C., after 72 hours) is “only very small spectral changes”.
As a reminder, the pIC50 is the negative decadic logarithm of the IC50, by convention in mol/L. For `[O-][n+]1ccccc1S` [PT, 2-mercaptopyridine N-oxide], the pIC50 in data set [2] (500 μM BCS, depending on strain, read-out: IC50 across strains under Cu limiting conditions) is 4.70 to 5.22; in data set [2] (LB broth, span over 7 strains, read-out: IC50 across all strains tested), 4.96 to 5.70. The “increase in cell-associated copper over the CuCl2 control” value in data set [6] worked out at 30 fold. Moreover, in data set [6], the “changes in cell-associated copper, iron, or zinc vs untreated control” value is recorded as “no significant changes”.
